Target: Cyclin-dependent kinase 2 (Homo sapiens, UniProt P24941)
Assay: Inhibition of CDK2 in human OVCAR-3 cells assessed as inhibition of retinoblastoma protein phosphorylation at S807/811 residues measured after 24 hrs by TR-FRET assay
Type: cell-based

| Compound | IC50 |
| --- | --- |
| O=C1CCC(N2C(=O)c3cc(F)c(N4CCN(Cc5cccc(S(=O)(=O)N6CCC(Nc7ncc(Cl)c(-c8cnn(CC(F)(F)F)c8)n7)CC6)c5)CC4)cc3C2=O)C(=O)N1 (stereo not drawn) | < 100 nM |
| Cn1nc(N2CCC(=O)NC2=O)c2ccc(C3CCN(CC4CCN(S(=O)(=O)N5CCC(Nc6ncc(C(F)(F)F)c(-c7cnn(CC(F)(F)F)c7)n6)CC5)CC4)CC3)cc21 | < 100 nM |
| Cn1nc(N2CCC(=O)NC2=O)c2ccc(C3CCN(Cc4cccc(S(=O)(=O)N5CCC(Nc6ncc(C(F)(F)F)c(-c7cnn(-c8ccccc8F)c7)n6)CC5)c4)CC3)cc21 | ≤ 100 nM |
| O=C1CCC(N2Cc3ccc(N4CCC5(CCN(Cc6cccc(S(=O)(=O)N7CCC(Nc8ncc(C(F)(F)F)c(-c9cnn(CC(F)(F)F)c9)n8)CC7)c6)CC5)CC4)cc3C2=O)C(=O)N1 (stereo not drawn) | < 100 nM |
| O=C1CCC(N2C(=O)c3cc(F)c(N4CC5(CN(Cc6cccc(S(=O)(=O)N7CCC(Nc8ncc(C(F)(F)F)c(-c9cnn(CC(F)(F)F)c9)n8)CC7)c6)C5)C4)cc3C2=O)C(=O)N1 (stereo not drawn) | < 100 nM |

Next, values leading:

| IC50 | Compound |
| --- | --- |
| < 100 nM | O=C1CCC(N2Cc3cc(C4CN(Cc5cccc(S(=O)(=O)N6CCC(Nc7ncc(C(F)(F)F)c(-c8cnn(CC(F)(F)F)c8)n7)CC6)c5)C4)ccc3C2=O)C(=O)N1 (stereo not drawn) |
| < 100 nM | O=C1CCC(c2ccc(N3CCN(Cc4cccc(S(=O)(=O)N5CCC(Nc6ncc(C(F)(F)F)c(-c7cnn(CC(F)(F)F)c7)n6)CC5)c4)CC3)cc2)C(=O)N1 (stereo not drawn) |
| < 100 nM | Cn1nc(N2CCC(=O)NC2=O)c2cc(C3CCN(Cc4cccc(S(=O)(=O)N5CCC(Nc6ncc(C(F)(F)F)c(-c7cnn(CC(F)(F)F)c7)n6)CC5)c4)CC3)ccc21 |
